{"source": "paper PMC11314129", "about": "“Synthesis, Computational Study, and In Vitro α-Glucosidase Inhibitory Action of Thiourea Derivatives Based on 3-Aminopyridin-2(1H)-Ones” (Molecules, 2024)", "key": {"[1]": {"target": "T1, α-glucosidase from Saccharomyces cerevisiae (Saccharomyces cerevisiae, UniProt P53341)", "T1 construct": "purchased Sigma-Aldrich", "T1 sequence (P53341 whole entry)": "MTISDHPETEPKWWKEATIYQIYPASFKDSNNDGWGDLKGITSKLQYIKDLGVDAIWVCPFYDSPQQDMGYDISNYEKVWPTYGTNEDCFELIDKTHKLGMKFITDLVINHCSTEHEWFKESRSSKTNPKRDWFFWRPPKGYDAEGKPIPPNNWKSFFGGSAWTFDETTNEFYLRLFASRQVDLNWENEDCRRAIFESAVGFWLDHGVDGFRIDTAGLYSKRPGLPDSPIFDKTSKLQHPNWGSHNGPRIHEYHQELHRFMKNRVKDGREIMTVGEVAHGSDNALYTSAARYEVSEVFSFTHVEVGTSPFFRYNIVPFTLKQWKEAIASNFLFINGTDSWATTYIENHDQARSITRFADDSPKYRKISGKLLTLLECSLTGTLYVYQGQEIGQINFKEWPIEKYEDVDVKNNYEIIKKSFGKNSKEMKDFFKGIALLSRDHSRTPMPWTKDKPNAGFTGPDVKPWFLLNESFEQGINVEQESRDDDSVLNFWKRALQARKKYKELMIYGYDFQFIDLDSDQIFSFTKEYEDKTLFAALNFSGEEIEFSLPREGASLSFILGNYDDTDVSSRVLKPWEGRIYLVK", "assay": "biochemical", "assay_type": "biochemical", "conditions": "for inhibition at 15000 µM: read-out: Inhibitory Activity of Test Compounds at a Concentration of 15 mM Against the α-Glucosidase Enzyme (%); for Inhibitory Activity of Test Compounds at a Concentration of 15 mM Against the α-Glucosidase Enzyme (%) / IC50 (mM): mean ± standard error of the mean; for Inhibitory Activity of Test Compounds at a Concentration of 15 mM Against the α-Glucosidase Enzyme (%): triplets; for IC50 (mM): from graph of enzyme activity vs concentration", "method": "Antidiabetic activity was assessed by the degree of the inhibition of α-glucosidase activity by the test substances.\nThe study of the α-glucosidase activity inhibition degree by the test compounds was performed using a standard method with minor modifications.\nAntidiabetic activity was assessed by the degree of inhibition of α-glucosidase activity by the test substances. The α-glucosidase enzyme determines the extent to which glucose enters the bloodstream from the gastrointestinal tract. […] The enzyme (α-glucosidase from Saccharomyces cerevisiae, Sigma-Aldrich, St. Louis, MO, USA, 1.0 U/mL) in phosphate-buffered saline was incubated with various concentrations of test compounds at 37 °C for 15 min. All the studied substances were dissolved in 40% DMSO. Then, 5 mM p-nitrophenyl α-d-glucopyranoside was added to the mixture as a substrate. The mixture was incubated at […] for 20 min. The absorbance was measured spectrophotometrically at 405 nm. The sample solution was replaced by 40% DMSO as a control. […] All samples were studied in triplets.\nInhibitory activity was expressed as a percentage (%) according to the degree of inhibition of α-glucosidase in comparison with the negative control. It was calculated using the following formula:\nInhibitory activity (%) = (1 − As/Ac) × 100%, where As is the optical density of the test compound, and Ac is the optical density of control.\nThe IC50 was determined from the graph of enzyme activity changes depending on the sample concentration.\nThe statistical processing of the results was carried out using the “Excel 2019” program."}, "glucose-6-phosphatase": {"system": "glucose-6-phosphatase", "set-up": "method as in PMID 33304132", "conditions": "Swiss albino mice, cited from earlier work"}}, "note": "“Also recorded” adds a separate entry of the source.", "data": [{"compound": "C[C@H]1O[C@H](O[C@H]2[C@H](O)[C@@H](O)[C@@H](O[C@H]3[C@H](O)[C@@H](O)C(O)O[C@@H]3CO)O[C@@H]2CO)[C@H](O)[C@@H](O)[C@@H]1N[C@H]1C=C(CO)[C@@H](O)[C@H](O)[C@H]1O", "note": "(stereo partly shown) [Acarbose, reference compound]", "values": [{"measurement": "inhibition at 15000 µM", "setting": "[1]", "result": "46.1 ± 4.6", "unit": "%"}]}, {"compound": "S=C(NC(c1ccccn1)C(Cc1ccccc1)Cc1ccccc1)NC(c1ccccn1)C(Cc1ccccc1)Cc1ccccc1", "note": "(stereo not shown) [Compound 4, 1,3-bis(2-benzyl-3-phenyl-1-(pyridine-2-yl)propyl)thiourea]", "values": [{"measurement": "inhibition of the enzyme glucose-6-phosphatase", "setting": "glucose-6-phosphatase; streptozotocin diabetes", "result": "highest inhibition value"}, {"measurement": "safety for use in animals", "setting": "glucose-6-phosphatase", "result": "without having any toxic or lethal effects"}]}, {"compound": "C=CCNC(=S)Nc1c(C)cc(C)[nH]c1=O", "note": "[Compound 8a, 1-allyl-3-(4,6-dimethyl-2-oxo-1,2-dihydropyridin-3-yl)thiourea]", "values": [{"measurement": "IC50", "setting": "[1]", "result": "16.6 ± 1.57", "unit": "mM"}, {"measurement": "inhibition at 15000 µM", "setting": "[1]", "result": "23.3 ± 1.7", "unit": "%"}]}, {"compound": "C=CCNC(=S)Nc1c(-c2ccccc2)cc(C)[nH]c1=O", "note": "[Compound 8b, 1-allyl-3-(6-methyl-2-oxo-4-phenyl-1,2-dihydropyridin-3-yl)thiourea]", "values": [{"measurement": "IC50", "setting": "[1]", "result": "19.8 ± 2.55", "unit": "mM"}, {"measurement": "inhibition at 15000 µM", "setting": "[1]", "result": "26.9 ± 2.5", "unit": "%"}]}, {"compound": "C=CCNC(=S)Nc1c(-c2cccs2)cc(C)[nH]c1=O", "note": "[Compound 8c, 1-Allyl-3-(6-methyl-2-oxo-4-(thiophen-2-yl)-1,2-dihydropyridin-3-yl)thiourea]", "values": [{"measurement": "inhibitory activity against α-glucosidase (in words)", "setting": "[1]", "result": "did not show inhibitory activity; also recorded: showed no inhibitory activity"}, {"measurement": "Inhibitory Activity of Test Compounds at a Concentration of 15 mM Against the α-Glucosidase Enzyme (%)", "setting": "[1]", "result": "No activity"}, {"measurement": "IC50 (mM)", "setting": "[1]", "result": "No activity"}, {"measurement": "melting point", "result": "289 to 292", "unit": "°C"}]}, {"compound": "Cc1cc(C)c(NC(=S)Nc2ccccc2)c(=O)[nH]1", "note": "[Compound 9a, 1-(4,6-Dimethyl-2-oxo-1,2-dihydropyridin-3-yl)-3-phenylthiourea]", "values": [{"measurement": "IC50", "setting": "[1]", "result": "9.77 ± 0.83", "unit": "mM"}, {"measurement": "inhibition at 15000 µM", "setting": "[1]", "result": "56.6 ± 2.2", "unit": "%"}, {"measurement": "melting point", "result": "140 to 143", "unit": "°C"}]}, {"compound": "Cc1cc(-c2ccccc2)c(NC(=S)Nc2ccccc2)c(=O)[nH]1", "note": "[Compound 9b, 1-(6-Methyl-2-oxo-4-phenyl-1,2-dihydropyridin-3-yl)-3-phenylthiourea]", "values": [{"measurement": "IC50", "setting": "[1]", "result": "21.8 ± 2.65", "unit": "mM"}, {"measurement": "inhibition at 15000 µM", "setting": "[1]", "result": "35.2 ± 3.4", "unit": "%"}, {"measurement": "melting point", "result": "141 to 144", "unit": "°C"}]}, {"compound": "Cc1cc(-c2cccs2)c(NC(=S)Nc2ccccc2)c(=O)[nH]1", "note": "[Compound 9c, 1-(6-Methyl-2-oxo-4-(thiophen-2-yl)-1,2-dihydropyridin-3-yl)-3-phenylthiourea]", "values": [{"measurement": "inhibition at 15000 µM", "setting": "[1]", "result": "41.2 ± 2.5", "unit": "%"}, {"measurement": "melting point", "result": "145 to 147", "unit": "°C"}]}, {"compound": "CC(=O)NC(=S)Nc1c(C)cc(C)[nH]c1=O", "note": "[Compound 10a, N-((4,6-Dimethyl-2-oxo-1,2-dihydropyridin-3-yl)carbamothioyl)acetamide]", "values": [{"measurement": "inhibitory activity against α-glucosidase (in words)", "setting": "[1]", "result": "did not show inhibitory activity; also recorded: showed no inhibitory activity"}, {"measurement": "Inhibitory Activity of Test Compounds at a Concentration of 15 mM Against the α-Glucosidase Enzyme (%)", "setting": "[1]", "result": "No activity"}, {"measurement": "IC50 (mM)", "setting": "[1]", "result": "No activity"}, {"measurement": "melting point", "result": "273 to 275", "unit": "°C"}]}, {"compound": "CC(=O)NC(=S)Nc1c(-c2ccccc2)cc(C)[nH]c1=O", "note": "[Compound 10b, N-((6-Methyl-2-oxo-4-phenyl-1,2-dihydropyridin-3-yl)carbamothioyl)acetamide]", "values": [{"measurement": "inhibitory activity against α-glucosidase (in words)", "setting": "[1]", "result": "did not show inhibitory activity; also recorded: showed no inhibitory activity"}, {"measurement": "Inhibitory Activity of Test Compounds at a Concentration of 15 mM Against the α-Glucosidase Enzyme (%)", "setting": "[1]", "result": "No activity"}, {"measurement": "IC50 (mM)", "setting": "[1]", "result": "No activity"}, {"measurement": "melting point", "result": "249 to 251", "unit": "°C"}]}, {"compound": "CC(=O)NC(=S)Nc1c(-c2cccs2)cc(C)[nH]c1=O", "note": "[Compound 10c, N-((6-Methyl-2-oxo-4-(thiophen-2-yl)-1,2-dihydropyridin-3-yl)carbamothioyl)acetamide]", "values": [{"measurement": "inhibitory activity against α-glucosidase (in words)", "setting": "[1]", "result": "did not show inhibitory activity; also recorded: showed no inhibitory activity"}, {"measurement": "Inhibitory Activity of Test Compounds at a Concentration of 15 mM Against the α-Glucosidase Enzyme (%)", "setting": "[1]", "result": "No activity"}, {"measurement": "IC50 (mM)", "setting": "[1]", "result": "No activity"}, {"measurement": "melting point", "result": "252 to 254", "unit": "°C"}]}, {"compound": "Cc1cc(C)c(NC(=S)NC(=O)c2ccccc2)c(=O)[nH]1", "note": "[Compound 11a, N-((4,6-Dimethyl-2-oxo-1,2-dihydropyridin-3-yl)carbamothioyl)benzamide]", "values": [{"measurement": "inhibitory activity against α-glucosidase (in words)", "setting": "[1]", "result": "did not show inhibitory activity; also recorded: showed no inhibitory activity"}, {"measurement": "Inhibitory Activity of Test Compounds at a Concentration of 15 mM Against the α-Glucosidase Enzyme (%)", "setting": "[1]", "result": "No activity"}, {"measurement": "IC50 (mM)", "setting": "[1]", "result": "No activity"}, {"measurement": "melting point", "result": "230 to 232", "unit": "°C"}]}, {"compound": "Cc1cc(-c2ccccc2)c(NC(=S)NC(=O)c2ccccc2)c(=O)[nH]1", "note": "[Compound 11b, N-[(6-Methyl-2-oxo-4-phenyl-1,2-dihydropyridin-3-yl)carbamothioyl]benzamide]", "values": [{"measurement": "inhibitory activity against α-glucosidase (in words)", "setting": "[1]", "result": "did not show inhibitory activity; also recorded: showed no inhibitory activity"}, {"measurement": "Inhibitory Activity of Test Compounds at a Concentration of 15 mM Against the α-Glucosidase Enzyme (%)", "setting": "[1]", "result": "No activity"}, {"measurement": "IC50 (mM)", "setting": "[1]", "result": "No activity"}, {"measurement": "melting point", "result": "218 to 220", "unit": "°C"}]}, {"compound": "Cc1cc(-c2cccs2)c(NC(=S)NC(=O)c2ccccc2)c(=O)[nH]1", "note": "[Compound 11c, N-((6-Methyl-2-oxo-4-(thiophen-2-yl)-1,2-dihydropyridin-3-yl)carbamothioyl)benzamide]", "values": [{"measurement": "inhibitory activity against α-glucosidase (in words)", "setting": "[1]", "result": "did not show inhibitory activity; also recorded: showed no inhibitory activity"}, {"measurement": "Inhibitory Activity of Test Compounds at a Concentration of 15 mM Against the α-Glucosidase Enzyme (%)", "setting": "[1]", "result": "No activity"}, {"measurement": "IC50 (mM)", "setting": "[1]", "result": "No activity"}, {"measurement": "melting point", "result": "245 to 249", "unit": "°C"}]}]}
